# From article PMC6486649 (Analytica chimica acta, 2019)
# Legend:
# [1] = cited from earlier work
# hCMEC/D3 cells = format: in vitro ADME, human; settings: either individually or in combination, p<0.05, two-way ANOVA
structure (smiles),measurement,setting,value
C[C@@H]1CCO[C@H]2Cn3cc(C(=O)NCc4ccc(F)cc4F)c(=O)c(O)c3C(=O)N12 [Dolutegravir],LogP,[1],1.10
same,Intracellular accumulation compared with tenofovir or emtricitabine,hCMEC/D3 cells,significantly higher
